This is an account of results in paper PMC3431135, “Pharmacological Evaluation and Docking Studies of 3-Thiadiazolyl- and Thioxo-1,2,4-triazolylcoumarin Derivatives as Cholinesterase Inhibitors” (ISRN Pharmacology, 2012).

Read-outs that look alike come from different tables or passages of the source.

Assay [1] has as its target T1, AChE from electrophorus electricus (EeAChE) (Electrophorus electricus, UniProt O42275).
T1 construct: Acetylcholinesterase (AChE) (EC 3.1.1.7, type VI-S from Electric Eel); purchased Sigma-Aldrich (Steinheim, Germany) type VI-S; host or cells: electric eel (natural source)
Put plainly: biochemical. As to the method: (§1) Acetylcholinesterase (AChE) (EC 3.1.1.7, type VI-S from Electric Eel), butyrylcholinesterase (BChE) (EC 3.1.1.8, from horse serum). AChE and BChE were also isolated from rabbit brain and serum, respectively.
(§2) The inhibitory activities of coumarin derivatives were measured quantitatively by Ellman's method and performed with some modifications as in Ingkaninan et al. method by using 96-microliter well plate. Series of newly synthesized coumarin derivatives were tested as AChE and BChE inhibitors. Initially, each compound was dissolved in DMSO (end concentration of DMSO was less than 1% in assay) and tested at a final concentration of 1 mM or 10 μL of DMSO (as negative control) in wells for initial screening. […] Reaction mixture comprised of 50 μL of 3 mM DTNB (5,5′-dithiobis(2-nitrobenzoic acid)) in assay buffer, 10 μL of test compound, and 10 μL of AChE (0.031 IU/mL) or BChE (0.5 IU/mL). This mixture was preincubated at 25°C for 10 min. After preincubation, enzymatic reaction was started by addition of 10 μL of 10 mM MBTCCl (butyrylthiocholine chloride) or ATCI (acetylthiocholine iodide) according to the respective enzyme and mixture was incubated again for 15 min. […] Enzyme dilution buffer consisted of 50 mM Tris-HCl containing 0.1% (w/v) BSA (pH 8). The effect of DMSO on activity of enzyme was subtracted by a negative control containing DMSO, instead of inhibitor. Each concentration was analyzed in triplicate and Ki values were calculated from IC50 values by using a nonlinear curve fitting program PRISM 5.0 (GraphPad, San Diego, California, USA).

In assay [2] the target is T2, BChE from rabbit serum (rBChE) (Oryctolagus cuniculus, UniProt P21927).
T2 construct: BChE was obtained from rabbit blood serum by applying the techniques of centrifugation; from tissue; host or cells: rabbit blood serum
In words: biochemical. As to the method:
as §1
(§3) AChE was isolated from rabbit brain. Heads were decapitated and brains were thawed and homogenized for 30 sec in 2.5 volumes of 1 mM EDTA, 0.32 M ice cold sucrose, 10 μM tetracain (pH7.0). The homogenates were centrifuged at 105,000 ×g for 60 min (4°C). The supernatants were removed and pellets were again homogenized in same volume of 0.2% triton phosphate buffer. After centrifugation, the supernatants were again removed and pellets were rehomogenized for 10 sec in 2.5 volumes of 1% triton phosphate buffer. […] BChE was obtained from rabbit blood serum by applying the techniques of centrifugation. The purified enzymes were stored at –80°C.
as §2

Assay [3] addresses T3, rabbit AChE (rAChE), isolated from rabbit brain (Oryctolagus cuniculus, UniProt Q29499).
T3 construct: AChE was isolated from rabbit brain; from tissue; host or cells: rabbit brain
Put plainly: biochemical. As to the method: as §1, §3, §2

In assay [4] the target is T4, BChE from horse serum (hBChE) (Equus caballus, UniProt P81908).
T4 construct: butyrylcholinesterase (BChE) (EC 3.1.1.8, from horse serum); purchased Sigma-Aldrich (Steinheim, Germany); host or cells: horse serum (natural source)
In words: biochemical. The class given is biochemical. As to the method:
as §1, §2

For the next assay, the system named is AChE. In words: Kinetic characterization of AChE inhibition (Lineweaver-Burk). Type of assay: biochemical. The following applies: Lineweaver-Burk plots; inhibitor 0–100 nM; substrate ATCI. As to the method:
(§4) […]. […] As Km value was increasing and value of Vmax remained almost same in the presence or absence of inhibitor, indication of competitive type of inhibitory mechanism against AChE and BChE.
(§5) Kinetic characterization of AChE and BChE was performed by using Ellman's method. […]. Enzyme kinetic characterization studies were performed under same incubation conditions as described above by using ATCI and BTCCl as substrates and DTNB was used as chromophoric reagent. A parallel control with no inhibitor in the mixture was added for comparison. Each concentration was analyzed in triplicate; and Lineweaver-Burk (1/V versus 1/[S]) plot was constructed using Prism software.

Another assay relates to BChE. Put plainly: Kinetic characterization of BChE inhibition (Lineweaver-Burk). The class given is biochemical. The settings on record: Lineweaver-Burk plots; inhibitor 0–5 nM; substrate BTCCl. As to the method: as §4, §5
[5] abbreviates: mean ± SEM of three experiments, Ki calculated from IC50, substrate ATCI, read-out: EeAChE Ki ± SEM.
[6] abbreviates: rabbit serum BChE, mean ± SEM of three experiments, Ki calculated from IC50, substrate BTCCl, read-out: rBChE Ki ± SEM.
Setting [7] is: mean ± SEM of three experiments, Ki calculated from IC50, substrate ATCI, read-out: rAChE Ki ± SEM.
[8] abbreviates: horse serum BChE, mean ± SEM of three experiments, Ki calculated from IC50, substrate BTCCl, read-out: hBChE Ki ± SEM.

T2 sequence (P21927 9-581): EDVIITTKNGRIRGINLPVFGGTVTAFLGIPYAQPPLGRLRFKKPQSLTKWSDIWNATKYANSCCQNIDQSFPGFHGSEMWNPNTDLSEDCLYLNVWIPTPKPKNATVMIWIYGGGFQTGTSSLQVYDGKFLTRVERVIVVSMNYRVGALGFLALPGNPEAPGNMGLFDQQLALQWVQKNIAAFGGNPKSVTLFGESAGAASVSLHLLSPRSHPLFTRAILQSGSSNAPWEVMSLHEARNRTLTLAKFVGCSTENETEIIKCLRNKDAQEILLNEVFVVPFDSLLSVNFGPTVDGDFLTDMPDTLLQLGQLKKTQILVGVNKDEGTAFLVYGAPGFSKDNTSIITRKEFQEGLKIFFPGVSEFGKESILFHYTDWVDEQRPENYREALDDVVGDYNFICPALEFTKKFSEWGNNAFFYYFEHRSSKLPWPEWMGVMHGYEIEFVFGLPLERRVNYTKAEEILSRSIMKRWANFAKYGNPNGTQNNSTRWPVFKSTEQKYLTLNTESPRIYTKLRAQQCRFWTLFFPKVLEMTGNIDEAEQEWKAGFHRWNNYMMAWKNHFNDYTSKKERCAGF
T1 sequence (O42275 24-633): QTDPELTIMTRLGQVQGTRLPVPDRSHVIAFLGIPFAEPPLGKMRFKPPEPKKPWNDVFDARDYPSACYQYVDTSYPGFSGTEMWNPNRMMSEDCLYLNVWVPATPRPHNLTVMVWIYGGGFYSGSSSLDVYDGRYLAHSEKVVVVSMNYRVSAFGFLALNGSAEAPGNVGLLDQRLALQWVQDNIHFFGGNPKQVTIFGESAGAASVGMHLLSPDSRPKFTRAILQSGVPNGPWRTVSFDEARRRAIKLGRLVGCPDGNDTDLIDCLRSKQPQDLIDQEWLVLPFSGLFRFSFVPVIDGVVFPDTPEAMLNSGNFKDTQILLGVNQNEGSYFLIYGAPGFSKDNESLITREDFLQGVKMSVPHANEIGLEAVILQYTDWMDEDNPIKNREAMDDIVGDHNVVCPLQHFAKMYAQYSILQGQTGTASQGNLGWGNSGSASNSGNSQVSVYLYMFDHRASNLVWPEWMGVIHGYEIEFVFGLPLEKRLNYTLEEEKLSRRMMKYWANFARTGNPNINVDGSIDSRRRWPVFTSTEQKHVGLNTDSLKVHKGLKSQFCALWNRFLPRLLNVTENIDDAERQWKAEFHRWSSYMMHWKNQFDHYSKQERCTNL
T3 sequence (Q29499 2-584): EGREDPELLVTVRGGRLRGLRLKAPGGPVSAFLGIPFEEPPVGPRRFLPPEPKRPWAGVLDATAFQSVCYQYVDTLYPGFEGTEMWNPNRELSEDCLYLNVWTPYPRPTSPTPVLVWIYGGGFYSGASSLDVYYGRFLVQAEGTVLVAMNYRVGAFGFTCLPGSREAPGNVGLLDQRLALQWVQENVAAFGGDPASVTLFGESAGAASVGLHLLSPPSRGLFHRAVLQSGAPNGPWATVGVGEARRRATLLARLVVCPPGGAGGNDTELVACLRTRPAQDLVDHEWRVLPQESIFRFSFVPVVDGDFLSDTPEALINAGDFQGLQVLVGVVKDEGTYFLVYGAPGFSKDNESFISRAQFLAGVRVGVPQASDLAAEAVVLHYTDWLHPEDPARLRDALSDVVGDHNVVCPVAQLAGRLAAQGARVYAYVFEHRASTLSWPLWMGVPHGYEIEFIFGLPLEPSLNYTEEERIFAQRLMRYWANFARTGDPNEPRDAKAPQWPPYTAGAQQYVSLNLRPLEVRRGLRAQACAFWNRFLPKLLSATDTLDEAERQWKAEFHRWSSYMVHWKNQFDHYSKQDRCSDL
T4 sequence (P81908 whole entry): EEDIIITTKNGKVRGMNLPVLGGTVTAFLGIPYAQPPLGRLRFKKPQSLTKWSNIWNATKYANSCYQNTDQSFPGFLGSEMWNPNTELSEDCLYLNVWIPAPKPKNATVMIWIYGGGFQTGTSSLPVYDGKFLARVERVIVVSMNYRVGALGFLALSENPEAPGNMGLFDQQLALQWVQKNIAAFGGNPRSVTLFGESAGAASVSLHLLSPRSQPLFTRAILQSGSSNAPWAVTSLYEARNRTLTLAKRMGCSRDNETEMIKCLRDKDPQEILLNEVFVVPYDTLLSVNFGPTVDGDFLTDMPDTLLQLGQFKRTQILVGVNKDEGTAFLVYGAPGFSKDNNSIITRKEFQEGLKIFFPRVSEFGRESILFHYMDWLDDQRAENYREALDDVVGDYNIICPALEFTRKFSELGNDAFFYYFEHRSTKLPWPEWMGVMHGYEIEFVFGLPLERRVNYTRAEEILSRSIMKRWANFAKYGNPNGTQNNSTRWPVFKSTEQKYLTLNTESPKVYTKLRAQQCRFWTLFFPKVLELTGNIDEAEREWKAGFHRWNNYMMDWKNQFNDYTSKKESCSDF

By Ki is commonly meant a measure of affinity in units of concentration, obtained from inhibition or displacement. For the molecule `O=c1oc2ccccc2cc1-c1nnc(Nc2ccccc2Cl)s1` [Compound 4a, 3-(5-(2-Chlorophenylamino)-1,3,4-thiadiazol-2-yl)-2H-chromen-2-one], the Ki in assay [1] (setting [5]) is 5750 ± 780 nM; in assay [2] (setting [6]), 1390 ± 20 nM; in assay [3] (setting [7]), 31 ± 8 nM; in assay [4] (setting [8]), 100 ± 10 nM.

Turning to `Cc1ccc(Nc2nnc(-c3cc4ccccc4oc3=O)s2)cc1` [Compound 4e, 3-(5-(p-Toluidino)-1,3,4-thiadiazol-2-yl)-2H-chromen-2-one], the Ki in assay [1] (setting [5]) was 6190 ± 290 nM; in assay [2] (setting [6]) it was 460 ± 10 nM; in assay [3] (setting [7]) it was 561 ± 22 nM; in assay [4] (setting [8]), 280 ± 20 nM.

As to `O=c1oc2ccccc2cc1-c1n[nH]c(=S)n1-c1cccc(Cl)c1` [Compound 3b, 3-(4-(3-Chlorophenyl)-5-thioxo-4,5-dihydro-1H-1,2,4-triazol-3-yl)-2H-chromen-2-one], the Ki in assay [1] (setting [5]) is 320 ± 70 nM; in assay [2] (setting [6]), 65700 ± 2000 nM; in assay [3] (setting [7]) it was 600 ± 30 nM; in assay [4] (setting [8]), 36 ± 3 nM. In addition, in assay [4] (ratio of Ki values versus neostigmine), the “fold more active on hBChE than neostigmine” value is given as 2 fold.

On to `CN(C)C(=O)Oc1cccc([N+](C)(C)C)c1` [Neostigmine, neostigmine methylsulfate, reference compound], for which the Ki was 56 ± 6 nM in assay [1], 47 ± 6 nM in assay [2], 48 ± 3 nM in assay [3] and 60 ± 5 nM in assay [4].

Take `O=c1oc2ccccc2cc1-c1nnc(Nc2cccc(Cl)c2)s1` [Compound 4b, 3-(5-(3-Chlorophenylamino)-1,3,4-thiadiazol-2-yl)-2H-chromen-2-one]: the Ki is 280 ± 70 nM in assay [1] (setting [5]), 2260 ± 20 nM in assay [2] (setting [6]), 28 ± 2 nM in assay [3] (setting [7]) and 540 ± 90 nM in assay [4] (setting [8]). Also, in the assay with AChE, the “Type of inhibition of AChE” value is on record as “competitive inhibitor”. The “Type of inhibition of BChE” value in the assay with BChE is given as “competitive inhibitor”.

Consider `Cc1ccc(-n2c(-c3cc4ccccc4oc3=O)n[nH]c2=S)cc1` [Compound 3e, 3-(5-Thioxo-4-p-tolyl-4,5-dihydro-1H-1,2,4-triazol-3-yl)-2H-chromen-2-one], for which the Ki in assay [1] (setting [5]) is 18400 ± 3400 nM; in assay [2] (setting [6]) it was 140 ± 50 nM; in assay [3] (setting [7]) it was 39 ± 2 nM; in assay [4] (setting [8]), 130 ± 10 nM.

`O=c1oc2ccccc2cc1-c1nnc(Nc2ccc(Cl)cc2)s1` [Compound 4c, 3-(5-(4-Chlorophenylamino)-1,3,4-thiadiazol-2-yl)-2H-chromen-2-one]: the Ki was 48600 ± 4400 nM in assay [1] (setting [5]), 350 ± 10 nM in assay [2] (setting [6]), 240 ± 21 nM in assay [3] (setting [7]) and 420 ± 10 nM in assay [4] (setting [8]).

Take `Cc1cccc(-n2c(-c3cc4ccccc4oc3=O)n[nH]c2=S)c1` [Compound 3d, 3-(5-Thioxo-4-m-tolyl-4,5-dihydro-1H-1,2,4-triazol-3-yl)-2H-chromen-2-one]: the Ki in assay [1] (setting [5]) was 5770 ± 310 nM; in assay [2] (setting [6]) it was 1110 ± 50 nM; in assay [3] (setting [7]), 82 ± 2 nM; in assay [4] (setting [8]), 180 ± 20 nM.

`Cc1cccc(Nc2nnc(-c3cc4ccccc4oc3=O)s2)c1` [Compound 4d, 3-(5-(m-Toluidino)-1,3,4-thiadiazol-2-yl)-2H-chromen-2-one]: the Ki in assay [1] (setting [5]) was 28000 ± 1630 nM; in assay [2] (setting [6]), 510 ± 10 nM; in assay [3] (setting [7]), 17 ± 2 nM; in assay [4] (setting [8]), 660 ± 10 nM.

Consider `COc1cccc(Nc2nnc(-c3cc4ccccc4oc3=O)s2)c1` [Compound 4g, 3-(5-(3-Methoxyphenylamino)-1,3,4-thiadiazol-2-yl)-2H-chromen-2-one], for which the Ki is 8260 ± 10 nM in assay [1] (setting [5]), 1520 ± 30 nM in assay [2] (setting [6]), 21 ± 1 nM in assay [3] (setting [7]) and 340 ± 10 nM in assay [4] (setting [8]).

For `COc1ccccc1-n1c(-c2cc3ccccc3oc2=O)n[nH]c1=S` [Compound 3f, 3-(4-(2-Methoxyphenyl)-5-thioxo-4,5-dihydro-1H-1,2,4-triazol-3-yl)-2H-chromen-2-one], the Ki in assay [1] (setting [5]) is 4060 ± 340 nM; in assay [2] (setting [6]), 690 ± 20 nM; in assay [3] (setting [7]) it was 61 ± 5 nM; in assay [4] (setting [8]) it was 280 ± 10 nM.

Turning to `O=c1oc2ccccc2cc1-c1n[nH]c(=S)n1-c1ccccc1Cl` [Compound 3a, 3-(4-(2-Chlorophenyl)-5-thioxo-4,5-dihydro-1H-1,2,4-triazol-3-yl)-2H-chromen-2-one], the Ki was 2420 ± 430 nM in assay [1] (setting [5]), 21400 ± 1600 nM in assay [2] (setting [6]), 470 ± 70 nM in assay [3] (setting [7]) and 190 ± 10 nM in assay [4] (setting [8]).

Turning to `COc1cccc(-n2c(-c3cc4ccccc4oc3=O)n[nH]c2=S)c1` [Compound 3g, 3-(4-(3-Methoxyphenyl)-5-thioxo-4,5-dihydro-1H-1,2,4-triazol-3-yl)-2H-chromen-2-one], the Ki in assay [1] (setting [5]) is 980 ± 340 nM; in assay [2] (setting [6]), 22100 ± 200 nM; in assay [3] (setting [7]) it was 46 ± 2 nM; in assay [4] (setting [8]) it was 7550 ± 30 nM.

As to `O=c1oc2ccccc2cc1-c1n[nH]c(=S)n1-c1ccc(Cl)cc1` [Compound 3c, 3-(4-(4-Chlorophenyl)-5-thioxo-4,5-dihydro-1H-1,2,4-triazol-3-yl)-2H-chromen-2-one], the Ki was 450 ± 90 nM in assay [1] (setting [5]), 520 ± 30 nM in assay [2] (setting [6]), 13 ± 2 nM in assay [3] (setting [7]) and 1340 ± 20 nM in assay [4] (setting [8]).

As to `COc1ccccc1Nc1nnc(-c2cc3ccccc3oc2=O)s1` [Compound 4f, 3-(5-(2-Methoxyphenylamino)-1,3,4-thiadiazol-2-yl)-2H-chromen-2-one], the Ki in assay [1] (setting [5]) was 7160 ± 10 nM; in assay [2] (setting [6]), 1360 ± 30 nM; in assay [3] (setting [7]) it was 81 ± 1 nM; in assay [4] (setting [8]) it was 230 ± 10 nM.
